# From patent US10006057B2, “Recombinant yeast having enhanced gamma valerolactone tolerance and methods of use” (Wisconsin Alumni Research Foundation, priority 2014, dated 2018)
# “Also recorded” adds a separate entry of the source.
# Legend:
# Assay type in all cases: cell-based, Saccharomyces cerevisiae
# yeast [1] = assay: IC50 determination, growth inhibition (strain not stated at the result); settings: FIG. 6B; p<0.001
# Experimental: (§1) Compounds tested were purchased from Sigma. Cells of S. cerevisiae (MATα pdr1Δ::natMX pdr3Δ::KI.URA3 snq2Δ::KI.LEU2 can1Δ::STE2pr-Sp_his5 lyp1Δ his3Δ1 leu2Δ0 ura3Δ0 met15Δ0), referred to as control strain, were grown in 200 μl cultures at 30° C. in YPD, with a drug or DMSO control. Plates were read on a TECAN M1000 over a 48 h growth period. The specific growth rate was calculated using GCAT analysis software (available at gcat3-pub.glbrc.org on the world wide web). When presented, IC50 values for growth inhibition were calculated from triplicate 8 point dose curves and SigmaPlot 12.0. When presented, error bars are Mean±Standard error of at least 3 replicates.
# yeast [2] = assay: 4-vinylphenol-GVL synergy, growth; settings: FIG. 6C; p<0.01
# [3] = tested on: deletion mutants of SEC28, VPS38, DID2; assay: Single mutant validation of GVL sensitivity; settings: single mutant cultures; FIG. 2C
# Source text: Among the top 10 sensitive deletion mutants, we found significant enrichment for genes involved in late endosome to vacuole transport (p<0.01, FIG. 2B), driven by deletion mutants of SEC28, VPS38, DID2. […] Deletion mutants of these 3 genes have increased sensitivity to ethanol, heat, and membrane disrupting agents such as miconazole and nigercin. When we correlated the chemical genomic profile of GVL with the yeast genetic interaction network, we found significant enrichment for genes involved in golgi-vesicle mediated transport among the top 10 correlations (p=0.001). RET2 was consistently predicted as the top correlation for the GVL chemical genomic profile. Ret2p is a subunit of the coatomer complex involved in retrograde transport between Golgi and ER is also involved in golgi transport of vesicles. RET2 mutants similarity show increased sensitivity to heat and membrane disrupting agents.
# (§2) Compounds tested were purchased from Sigma. […] Plates were read on a TECAN M1000 over a 48 h growth period. The specific growth rate was calculated using GCAT analysis software (available at gcat3-pub.glbrc.org on the world wide web). When presented, IC50 values for growth inhibition were calculated from triplicate 8 point dose curves and SigmaPlot 12.0. […]
# [4] = tested on: FDC1 deletion mutant in the standard lab strain background; assay: GVL IC50, growth inhibition; settings: single mutant validation; FIG. 4B
# Experimental: as §1
# [5] = tested on: PAD1 deletion mutant in the standard lab strain background; assay: GVL IC50, growth inhibition; settings: single mutant validation; FIG. 4B
# Experimental: as §1
# xylose fermenting strain = assay: GVL-ethanol synergy, growth; settings: FIG. 3C
# Experimental: (§3) To test for synergy, a 6×6 dose matrix was initially used to identify potentially synergistic dose combinations, these points were then confirmed in triplicate. 200 μl cultures were grown with combinations of with poacic acid (125 μg/ml), caspofungin (12.5 ng/ml) and fluconazole (3.8 μg/ml) and the relevant single agent and solvent controls their OD measured after 24 h. Synergy was determined by comparing actual optical density in the presence of compound combinations to an expected value calculated using the multiplicative hypothesis. This assumes that, in the absence of an interaction, each compound would decrease the OD of the cell culture by the same fraction in the presence of the other compound as it does when applied alone, i.e., E=A*B/C, where E is the expected OD, A is OD when compound A is applied alone, B is OD when compound B is applied alone, and C is OD of the control culture (DMSO). In the presence of synergy, the actual OD value is lower than the expected OD. A paired t-test was used to confirm statistical significance of this difference in 3 replicates of the experiment.
# (§4) The synergistic interaction between GVL and ethanol was initially discovered using a 6-point dose matrix of the two compounds. We identified the points of the greatest synergy and perform triplicate growth curves of GLBRY-128 using a TECAN M1000 microplate reader. To confirm the GVL-R1 strain was less sensitive to the synergism between GVL and ethanol, used a 6-point dose matrix as described above with both GLBRCY-128 or GVL-R1 in a TECAN microplate reader for 48 hours at 30° C. Data from the most synergistic combination is presented (2% GVL-5% ethanol).
# lab strain = assay: GVL-ethanol synergy, growth; settings: FIG. 3C
# Experimental: as §3, §4
# Y133 + pPAD1 = assay: GVL IC50, single mutant cultures; settings: FIG. 4D
# Source text: We wanted to extend our chemical genomic analysis to industrially an industrially relevant, xylose ferment yeast strain. Presently there are no available genome-wide deletion mutant collections in industrial yeast, so we took a complementary approach. The MoBY-ORF 2.0 plasmid collection is with barcoded versions of 95% of all S. cerevisiae genes each expressed on a 2μ plasmid. This collection of plasmids can be pooled and transformed into any yeast to allow investigations of the effect of gene dose under stress conditions. We transformed a version of the xylose-fermenting yeast GLBRC-Y133 [15] en masse with the pooled plasmid collection and selected over 50K individual transformants (10× genome coverage). We grew this pooled transformant collection in the presence of 2.5% GVL or a water control under anaerobic conditions in glucose/xylose containing media and assessed the effects of increased gene dose on growth in the presence of GVL. We found the Pad1p overexpression mutant was one of the top sensitive strains (p<0.01, FIG. 4C). […]
# as §2
# Y133 pad1Δfdc1Δ [6] = assay: IC50 / tolerance, growth inhibition; settings: FIG. 5C; p<0.01
# Y133 background strain = assay: Growth and sugar conversion in synthetic hydrolysate with 1% GVL; settings: anaerobic, synthetic hydrolysate containing 1% GVL; FIG. 5D
# Experimental: (§5) 6 25-mL anaerobic flasks were prepared with Synthetic hydrolysate (SynH) (6% glucose/3% xylose)+1% GVL, pH 5.0. Flasks were inoculated with rinsed 133 or 133 pad1Δfdc1Δ cells to bring the initial OD to approximately 0.1. The tubes were grown for 72 hours with agitation anaerobically at 30° C. 1 mL samples were taken every 24 hours. Initial and daily samples were measured for OD and submitted for HPLC analysis to quantify sugar consumption and ethanol production.
# Y133 pad1Δfdc1Δ [7] = assay: as above; settings: anaerobic, synthetic hydrolysate containing 1% GVL; FIG. 5D
# Experimental: as §5
# [8] = tested on: membrane integrity of yeast cells; assay: Cell leakage assay (dye uptake, flow cytometry); settings: dye uptake after treatment; FIG. 3A, B
# Source text: To confirm if GVL treatment can rapidly affect cell integrity, we assessed cell permeability after GVL treatment. […] Given that both GVL and ethanol can damage cellular membranes, we also tested if these compounds are synergistic.
# A FungaLight™ cell viability assay (Invitrogen L34952) was used to determine if poacic acid caused membrane damage we used using a Guava Flow Cytometer (Millipore, USA). The population of stained cells (damaged integrity) vs non-stained cells can be determined by flow cytometry. Caspofungin (50 ng/ml) was included as a positive control. MMS and DMSO were included as a non-cell wall targeting and solvent control respectively. To test the effects of the compounds on both active and arrested cells, log-phase cultures were washed with 1×PBS and resuspended to an OD of 0.5 in either YPD media or YP (no carbon source) in the presence of the drugs (n=3) for 4 hours at 30° C. The cells were then stained and immediately read by flow cytometry. A one-way ANOVA and Tukey's test was used to calculate the difference between drug treatments among cells with arrested growth.
# S. cerevisiae = assay: 8 point dose curve for chemical genomic profiling; settings: YP-galactose media, 24 hours of growth
# Experimental: Chemical genomic analysis of poacic acid was performed as described as described previously. The tested yeast deletion collection had ˜4000 strains using the genetic background described in Andrusiak (2012). The optimal inhibitory concentration of poacic acid for chemical genomic profiling (70-80% growth versus solvent control in YP-galactose media after 24 hours of growth) was determined using an 8 point dose curve. A concentration of 88 μg/ml inhibited growth within this range. 200 μl cultures of the pooled, deletion collection of S. cerevisiae deletion mutants were grown with 88 μg/ml poacic acid or a DMSO control in triplicate for 48 h at 30° C. Genomic DNA was extracted using the Epicentre MasterPure™ Yeast DNA purification kit. Mutant-specific molecular barcodes were amplified with specially designed multiplex primers. The barcodes were sequenced using an Illumina MiSeq. 3 replicates of each condition (poacic acid vs DMSO) were sequenced. One DMSO control was lost due to poor sequencing reads. The barcode counts for each yeast deletion mutant in the presence of poacic acid were normalized against the DMSO control conditions to define sensitivity or resistance of individual strains. To determine a p-value for each top sensitive and resistant mutant, we used the EdgeR package. […]
compound,measurement,setting,value
C=Cc1ccc(O)cc1 [4-vinylphenol],IC50 / toxicity of 4-vinylphenol relative to coumaric acid,yeast [1],significantly more toxic; also recorded: an order of magnitude lower
same,synergistic interaction between 4-vinylphenol and GVL,yeast [2],significantly synergistic; also recorded: statistically significant synergistic interaction
"CC1CCC(=O)O1 (centres unmarked) [GVL, gamma valerolactone]",GVL IC50 / sensitivity compared to the control strain,[3],significantly more sensitive; also recorded: lower IC50
same,GVL tolerance of deletion mutant,[4],more tolerant; also recorded: improved GVL tolerance
same,GVL tolerance of deletion mutant,[5],more tolerant; also recorded: improved GVL tolerance
same,synergistic interaction between GVL and ethanol,"xylose fermenting strain; 1% GVL and 4% ethanol, p<0.01",significantly synergistic; also recorded: significant synergistic interaction
same,synergism between GVL and ethanol,xylose fermenting strain; xylose fermenting strain,strong synergism
same,synergism between GVL and ethanol,lab strain,strong synergism
same,GVL tolerance with increased expression of PAD1,Y133 + pPAD1,significantly reduced GVL tolerance
same,IC50 concentration / tolerance of GVL versus Y133 background,Y133 pad1Δfdc1Δ [6],significantly greater; also recorded: significantly higher
same,"growth, sugar consumption and ethanol production in presence of GVL",Y133 background strain,did not
same,"growth, sugar consumption and ethanol production in presence of GVL",Y133 pad1Δfdc1Δ [7],"faster growth, sugar consumption, and ethanol production; also recorded: grew, consumed sugars, and produced ethanol"
same,GVL concentration at which loss of membrane integrity is apparent,[8],2.5%
poacic acid,concentration giving 70-80% growth versus solvent control,S. cerevisiae,88 µg/mL
